# In article PMC8041284, “Tunable Methacrylamides for Covalent Ligand Directed Release Chemistry” (Journal of the American Chemical Society, 2021):
# Target: BTK (Homo sapiens, UniProt Q06187)
# Experiment: biochemical
# Conditions: read-out: BTK inhibition (%)
# Sequence of BTK (Q06187 402-655 limits assumed): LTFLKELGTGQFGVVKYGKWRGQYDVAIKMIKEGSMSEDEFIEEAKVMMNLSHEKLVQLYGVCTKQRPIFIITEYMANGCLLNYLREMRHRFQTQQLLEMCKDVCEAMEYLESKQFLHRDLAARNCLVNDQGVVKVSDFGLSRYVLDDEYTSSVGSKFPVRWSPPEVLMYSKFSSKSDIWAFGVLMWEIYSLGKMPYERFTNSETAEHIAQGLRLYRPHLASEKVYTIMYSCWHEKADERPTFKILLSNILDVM
row,SMILES,inhibition at 10 µM
1,Cc1sc2c(c1C)C(c1ccc(Cl)cc1)=N[C@@H](CC(=O)OC(C)(C)C)c1nnc(C)n1-2 [PCM-0095747],10.8%
2,CN1[C@@H]2CC[C@H]1CC(O)C2 (stereo partly shown) [PCM-0215128],-7.8%

# Same assay, conditions: read-out: BTK inhibition (%), 0.75 uM BTK, […] probe 3l, 15 min preincubation
row,SMILES,inhibition at 10 µM
1,C[C@@H]1O[C@@H](O[C@H]2[C@H](O[C@H]3CC[C@@]4(C)[C@@H](CC[C@]5(C)[C@@H]4CC=C4[C@@H]6CC(C)(C)CC[C@]6(C(=O)O[C@@H]6O[C@H](CO[C@@H]7O[C@H](CO)[C@@H](O[C@@H]8O[C@@H](C)[C@H](O)[C@@H](O)[C@H]8O)[C@H](O)[C@H]7O)[C@@H](O)[C@H](O)[C@H]6O)CC[C@]45C)[C@]3(C)CO)OC[C@H](O)[C@@H]2O)[C@H](O)[C@H](O)[C@H]1O [PCM-0215008],-10.1%
2,O=c1cc[nH]c(=S)[nH]1 [PCM-0090803],8.6%
3,C=CCNC1=C2C[C@@H](C)C[C@H](OC)[C@H](O)[C@@H](C)/C=C(\C)[C@H](OC(N)=O)[C@@H](OC)/C=C\C=C(/C)C(=O)NC(=CC1=O)C2=O [PCM-0094959],14%
4,COc1cc(CO)ccc1O [PCM-0215042],0%
5,CC(NC(C)(C)C)C(=O)c1cccc(Cl)c1 (stereo not shown) [PCM-0064429],-3.9%
6,CC(N)=NCc1cccc(CN)c1 [PCM-0215766],13.1%
7,CCn1c(-c2nonc2N)nc2c(C#CC(C)(C)O)ncc(OC[C@H]3CCCNC3)c21 [PCM-0094908],-4.1%
8,CC[C@H]1OC(=O)[C@H](C)[C@@H](O[C@H]2C[C@@](C)(OC)[C@@H](O)[C@H](C)O2)[C@H](C)[C@@H](O[C@@H]2O[C@H](C)C[C@H](N(C)C)[C@H]2O)[C@](C)(O)C[C@@H](C)C(=O)[C@H](C)[C@@H](O)[C@]1(C)O [PCM-0216070],10%
9,CC(C)=CC[C@@H](O)C1=CC(=O)c2c(O)ccc(O)c2C1=O [PCM-0215694],69.7%
10,CCN[C@H]1C[C@H](C)S(=O)(=O)c2sc(S(N)(=O)=O)cc21 [PCM-0086331],10.2%
11,C[C@@H]1O[C@@H](O[C@H]2[C@H](O[C@H]3CC[C@@]4(C)[C@@H](CC[C@]5(C)[C@@H]4CC=C4[C@@H]6CC(C)(C)CC[C@]6(C(=O)O[C@@H]6O[C@H](CO[C@@H]7O[C@H](CO)[C@@H](O)[C@H](O)[C@H]7O)[C@@H](O)[C@H](O)[C@H]6O)CC[C@]45C)[C@]3(C)CO)OC[C@H](O)[C@@H]2O)[C@H](O)[C@H](O[C@@H]2O[C@H](CO)[C@@H](O[C@@H]3O[C@H](CO)[C@@H](O)[C@H](O)[C@H]3O)[C@H](O)[C@H]2O)[C@H]1O [PCM-0215007],-12.5%
12,Cc1ccc(C(=O)Cn2c3c(sc2=N)CCCC3)cc1 [PCM-0095433],-11.7%
13,COc1cccc2c1C(=O)c1c(O)c3c(c(O)c1C2=O)C[C@@](O)(C(=O)CO)C[C@@H]3O[C@H]1C[C@H](N)[C@@H](O)[C@H](C)O1 [PCM-0090504],45.1%
14,CCOC(=O)OC(C)OC1=C(C(=O)Nc2ccccn2)N(C)S(=O)(=O)c2ccccc21 (stereo not shown) [PCM-0090753],2.1%
15,COc1ccc(-c2coc3cc(O)ccc3c2=O)cc1 [PCM-0087244],0.8%
16,C[Si](C)(C)CCOCn1ccc2c(-c3cn[nH]c3)ncnc21 [PCM-0216552],-40.9%
17,O=C1C=C2C=C[C@@H](O)[C@H](O)[C@H]2O1 [PCM-0216441],25.5%
18,CC(C)C(=O)Nc1ccc([N+](=O)[O-])c(C(F)(F)F)c1 [PCM-0065325],-3.4%
19,COc1ccc(C[C@@H]2c3cc(OC)c(OC)cc3CC[N@+]2(C)CCC(=O)OCCCCCOC(=O)CC[N@@+]2(C)CCc3cc(OC)c(OC)cc3[C@H]2Cc2ccc(OC)c(OC)c2)cc1OC [PCM-0095290],-8.6%
20,COc1cc(O)c(C(=O)c2ccccc2)cc1S(=O)(=O)O [PCM-0214826],-1.6%
21,COC(=O)C1=CO[C@@H](O[C@@H]2O[C@H](CO)[C@@H](O)[C@H](O)[C@H]2O)[C@@H]2C(CO)=C[C@H](O)[C@H]12 [PCM-0216324],-7.7%
22,O=C(/C=C/c1ccc(CN(CCO)CCc2c[nH]c3ccccc23)cc1)NO [PCM-0095072],-9.3%
23,CC(C)n1nccc1-c1ncccc1COc1cccc(O)c1C=O [PCM-0215847],-13.1%

row,SMILES,inhibition at 10 µM
1,Cc1c(-c2ccccc2)oc2c(C(=O)OCCN3CCCCC3)cccc2c1=O [PCM-0085770],12.8%
2,C[C@@H]1CC(=O)Nc2cccc(-c3ccc4c(c3)c(-c3cnn(C)c3)nn4C)c2N1 [PCM-0215716],1.5%
3,Cc1cc(C)n(C)n1 [PCM-0215908],-6.9%
4,c1nc2nc(Nc3ccc(N4CCOCC4)cc3)nc(NC3CCCCC3)c2[nH]1 [PCM-0215406],101%
5,CCCCNC(=O)NS(=O)(=O)c1ccc(C)cc1 [PCM-0064855],-11.7%
6,CC1(C)S[C@@H]2[C@H](NC(=O)Cc3ccccc3)C(=O)N2[C@H]1C(=O)O [PCM-0214771],-10.1%
7,NC(=O)c1cc(F)cc2c1C(=O)N(C1CCN(C3CCC(F)(F)CC3)CC1)C2 [PCM-0215809],4.6%
8,N#Cc1ccc(-c2c(-c3ncn[nH]3)sc(N3CCOCC3)c2C#N)c(F)c1 [PCM-0215501],19.3%
9,COc1cccc(-n2c(=O)[nH]c3cc(Cl)n(-c4ccc(-c5cccc(OC)c5O)cc4)c3c2=O)c1 [PCM-0215555],99.3%
10,CC(CCc1ccccc1)NCC(=O)c1ccc(O)c(C(N)=O)c1 (stereo not shown) [PCM-0216052],-18.5%
11,Clc1ccccc1C(c1ccccc1)(c1ccccc1)n1ccnc1 [PCM-0064702],-2.3%
12,CC1(C)S[C@@H]2[C@H](NC(=O)C(c3ccccc3)S(=O)(=O)O)C(=O)N2[C@H]1C(=O)O (stereo partly shown) [PCM-0216099],7.7%
13,CN(c1ccccc1CNc1nc(Nc2ccc3c(c2)CC(=O)N3)ncc1C(F)(F)F)S(C)(=O)=O [PCM-0215410],91.7%
14,CC(COc1ccccc1)N(CCCl)Cc1ccccc1 (stereo not shown) [PCM-0086553],17.1%
15,O=C(O)c1c[nH]c2ccccc12 [PCM-0215132],6.2%
16,O=C(NCc1ccccc1)c1csc(Nc2ccncn2)n1 [PCM-0095135],-9%
17,OCCN(CCO)c1nc(N2CCCCC2)c2nc(N(CCO)CCO)nc(N3CCCCC3)c2n1 [PCM-0065264],10.9%
18,N#Cc1c(Oc2ccc(F)c(NC(=O)Cc3cccc(C(F)(F)F)c3)c2)ccc2nc(NC(=O)C3CC3)sc12 [PCM-0215264],37.9%
19,CC(C)(C)c1nc(-c2cccc(NS(=O)(=O)c3c(F)cccc3F)c2F)c(-c2ccnc(N)n2)s1 [PCM-0095418],39.3%
20,Nc1ncn([C@H]2C[C@H](O)[C@@H](CO)O2)c(=O)n1 [PCM-0094900],11%
21,COc1cc2ncnc(Nc3ccc(O)c(Br)c3)c2cc1OC [PCM-0095533],33.8%
22,C[C@@H]1CC[C@H]2C(C)(C)C3CC12CC[C@@]3(C)O (stereo partly shown) [PCM-0215144],8.6%
23,COc1ccc(-c2oc3c(CC=C(C)C)c(O[C@@H]4O[C@H](CO)[C@@H](O)[C@H](O)[C@H]4O)cc(O)c3c(=O)c2O[C@@H]2O[C@@H](C)[C@H](O)[C@@H](O)[C@H]2O)cc1 [PCM-0094858],-0.8%

row,SMILES,inhibition at 10 µM
1,COc1c(O[C@@H]2O[C@H](CO)[C@@H](O)[C@H](O)[C@H]2O)cc2occ(-c3ccc(O)cc3)c(=O)c2c1O [PCM-0215052],-3.1%
2,CC1CCCCCCCCCCCCC(=O)C1 (stereo not shown) [PCM-0215929],0.7%
3,COc1ccc2c(c1)c(C1=C(c3c[nH]c4ccccc34)C(=O)NC1=O)cn2CCCN(C)C [PCM-0095393],24.8%
4,CC1(C)CC[C@]2(C(=O)O)CC[C@]3(CO)C(=CC[C@@H]4[C@@]5(C)C[C@H](O)[C@H](O[C@@H]6O[C@H](CO)[C@@H](O)[C@H](O)[C@H]6O)[C@@](C)(C(=O)O)[C@@H]5CC[C@]43C)[C@@H]2C1 [PCM-0216380],11.6%
5,CC(C)c1cc2c(N3CCN(C4=NCC(C)(C)S4)CC3)ncnc2s1 [PCM-0215379],-7.7%
6,CC(C)c1nc(N(C)S(C)(=O)=O)nc(-c2ccc(F)cc2)c1/C=C/[C@@H](O)C[C@@H](O)CC(=O)O [PCM-0090418],-4.7%
7,CC1(C)OC[C@@H](COC(=O)CCc2ccc(OC[C@@H](O)CNCCNC(=O)N3CCOCC3)cc2)O1 [PCM-0216254],-3.1%
8,O=C(O)c1cn(-c2ccc(F)cc2)c2cc(N3CCNCC3)c(F)cc2c1=O [PCM-0086286],-3.4%
9,COc1cc2c3c(c1OC)-c1ccccc1C[C@H]3N(C)CC2 [PCM-0215922],-12.8%
10,O=S(=O)(O)CCS [PCM-0086246],-3.1%
11,O=C(O)c1cccc(-c2noc(-c3ccccc3F)n2)c1 [PCM-0095566],-10%
12,Cc1cc(-n2c(=O)[nH]c(=O)n(C)c2=O)ccc1Oc1ccc(SC(F)(F)F)cc1 [PCM-0086289],-0.8%
13,CCOC(=O)C1=C(N)Oc2ccc(Cl)cc2C1C(C#N)C(=O)OCC (stereo not shown) [PCM-0215487],40.9%
14,N#C[C@@H]1C[C@@H]2C[C@@H]2N1C(=O)[C@@H](N)C12CC3CC(CC(O)(C3)C1)C2 [PCM-0095098],-22.6%
15,Clc1cccc(CN=C2Nc3ccccc3NC23CCNCC3)c1 [PCM-0215457],4.6%
16,CCCCCCCCCC(C)=O [PCM-0215930],10.1%
17,CCS(=O)(=O)N1CCN(c2ccc(Nc3ncc(C(N)=O)c(NC4CC4)n3)cc2)CC1 [PCM-0215389],85.5%
18,Cc1nc(NC(=O)N2CCC[C@H]2C(N)=O)sc1-c1ccnc(C(C)(C)C(F)(F)F)c1 [PCM-0095427],-7.6%
19,CCCCCCCCCCCCCCCCOP(=O)([O-])OCC[N+](C)(C)C [PCM-0090698],-72.3%
20,CC(C)=CCC[C@](C)(O)[C@H]1CC[C@]2(C)[C@@H]1[C@H](O)C[C@@H]1[C@@]3(C)CC[C@H](O[C@@H]4O[C@H](CO)[C@@H](O)[C@H](O)[C@H]4O[C@@H]4O[C@H](CO)[C@@H](O)[C@H](O)[C@H]4O)C(C)(C)[C@@H]3CC[C@]12C [PCM-0216610],16.2%
21,C[C@@H](Oc1cc(-n2cnc3ccc(CN4CCN(C)CC4)cc32)sc1C(N)=O)c1ccccc1C(F)(F)F [PCM-0095237],0.7%
22,COc1cc(CO)cc(OC)c1O [PCM-0215146],-6.2%
